Data on 21 compounds can be found in ChEMBL document CHEMBL1921668, “Discovery of new aminopyrimidine-based phosphoinositide 3-kinase beta (PI3Kβ) inhibitors with selectivity over PI3Kα” (Bioorg Med Chem Lett, 2011).

Structures are written as SMILES.

For the first experiment, the target named is T1, Phosphatidylinositol 4,5-bisphosphate 3-kinase catalytic subunit alpha isoform (Homo sapiens, UniProt P42336). As to the kind of experiment: Binding affinity to PI3Kalpha.
T1 sequence (P42336 whole entry, canonical isoform): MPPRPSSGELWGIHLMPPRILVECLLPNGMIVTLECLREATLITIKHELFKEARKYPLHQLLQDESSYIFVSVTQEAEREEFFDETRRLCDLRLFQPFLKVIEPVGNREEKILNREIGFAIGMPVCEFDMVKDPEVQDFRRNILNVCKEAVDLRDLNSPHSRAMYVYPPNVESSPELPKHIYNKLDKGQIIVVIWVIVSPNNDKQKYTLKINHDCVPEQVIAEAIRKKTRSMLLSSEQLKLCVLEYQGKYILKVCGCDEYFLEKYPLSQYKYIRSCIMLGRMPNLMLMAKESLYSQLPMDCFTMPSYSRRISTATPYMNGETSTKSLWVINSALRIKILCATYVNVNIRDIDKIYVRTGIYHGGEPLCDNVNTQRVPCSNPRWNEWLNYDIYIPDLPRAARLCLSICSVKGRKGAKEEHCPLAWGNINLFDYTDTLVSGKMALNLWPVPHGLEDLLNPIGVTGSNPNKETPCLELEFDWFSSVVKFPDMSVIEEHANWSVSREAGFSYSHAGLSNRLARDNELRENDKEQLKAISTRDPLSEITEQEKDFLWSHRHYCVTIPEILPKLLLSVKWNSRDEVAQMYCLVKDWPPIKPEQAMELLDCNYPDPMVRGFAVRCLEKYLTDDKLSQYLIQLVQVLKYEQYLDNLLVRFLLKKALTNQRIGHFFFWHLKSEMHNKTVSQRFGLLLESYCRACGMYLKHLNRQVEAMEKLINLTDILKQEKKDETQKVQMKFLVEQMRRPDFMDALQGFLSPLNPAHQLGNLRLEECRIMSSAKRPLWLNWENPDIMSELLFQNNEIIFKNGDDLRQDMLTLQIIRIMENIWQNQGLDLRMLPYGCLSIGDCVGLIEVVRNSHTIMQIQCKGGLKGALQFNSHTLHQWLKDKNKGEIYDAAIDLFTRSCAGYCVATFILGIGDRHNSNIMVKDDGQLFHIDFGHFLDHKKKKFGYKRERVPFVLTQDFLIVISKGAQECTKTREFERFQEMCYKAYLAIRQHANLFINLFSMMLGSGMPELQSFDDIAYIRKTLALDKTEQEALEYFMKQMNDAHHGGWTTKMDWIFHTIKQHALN
As usually defined, the Kd is the free concentration of one partner at which half of the binding sites on the other are occupied at equilibrium, for simple one-to-one binding. As for `Nc1ncc(-c2cncc(NS(=O)(=O)c3ccc4ccccc4c3)c2)cn1`, the Kd is greater than 40 µM.

The next experiment concerns the target Serine/threonine-protein kinase mTOR (Homo sapiens) (UniProt P42345). As to the kind of experiment: Inhibition of mTOR assessed as enzyme activity relative to control. Also on record: concentration or dose not given beside the values.
`CC(=O)Nc1cncc(-c2cnc(N)nc2)c1`: the Activity was 79%.
Regarding `CS(=O)(=O)Nc1cncc(-c2cnc(N)nc2)c1`, the Activity is 67%.
With `Nc1ncc(-c2cncc(NS(=O)(=O)c3cccc(C(F)(F)F)c3)c2)cn1`, the Activity came out at 41%.
In the case of `Nc1cncc(-c2cnc(N)nc2)c1`, the Activity was 53%.
`Nc1ncc(-c2cncc(NS(=O)(=O)c3ccc([N+](=O)[O-])cc3)c2)cn1`: the Activity came to 68%.
Regarding `COc1ccc(S(=O)(=O)Nc2cncc(-c3cnc(N)nc3)c2)cc1`, the Activity was 39%.
In the case of `Nc1ncc(-c2cncc(NS(=O)(=O)c3ccccc3)c2)cn1`, the Activity came to 74%.
Consider `Cc1ccc(S(=O)(=O)Nc2cncc(-c3cnc(N)nc3)c2)cc1[N+](=O)[O-]`, for which the Activity came out at 78%.
Same read-out and setting: under `Nc1ncc(-c2cncc(NS(=O)(=O)c3ccc(F)cc3F)c2)cn1` stands 56%.
For `Nc1ncc(-c2cncc(NS(=O)(=O)c3ccc4ccccc4c3)c2)cn1`, the Activity worked out at 96%.
Regarding `Cc1ccc(S(=O)(=O)Nc2cncc(-c3cnc(N)nc3)c2)cc1`, the Activity was 76%.

A further experiment deals with Phosphatidylinositol 4,5-bisphosphate 3-kinase catalytic subunit gamma isoform (Homo sapiens) (UniProt P48736). Briefly: Inhibition of PI3Kgamma assessed as enzyme activity relative to control. On the set-up: scale not given: the % may be the effect or the level left.
Chain of Phosphatidylinositol 4,5-bisphosphate 3-kinase catalytic subunit gamma isoform (Homo sapiens) (P48736 whole entry, looked up, canonical isoform): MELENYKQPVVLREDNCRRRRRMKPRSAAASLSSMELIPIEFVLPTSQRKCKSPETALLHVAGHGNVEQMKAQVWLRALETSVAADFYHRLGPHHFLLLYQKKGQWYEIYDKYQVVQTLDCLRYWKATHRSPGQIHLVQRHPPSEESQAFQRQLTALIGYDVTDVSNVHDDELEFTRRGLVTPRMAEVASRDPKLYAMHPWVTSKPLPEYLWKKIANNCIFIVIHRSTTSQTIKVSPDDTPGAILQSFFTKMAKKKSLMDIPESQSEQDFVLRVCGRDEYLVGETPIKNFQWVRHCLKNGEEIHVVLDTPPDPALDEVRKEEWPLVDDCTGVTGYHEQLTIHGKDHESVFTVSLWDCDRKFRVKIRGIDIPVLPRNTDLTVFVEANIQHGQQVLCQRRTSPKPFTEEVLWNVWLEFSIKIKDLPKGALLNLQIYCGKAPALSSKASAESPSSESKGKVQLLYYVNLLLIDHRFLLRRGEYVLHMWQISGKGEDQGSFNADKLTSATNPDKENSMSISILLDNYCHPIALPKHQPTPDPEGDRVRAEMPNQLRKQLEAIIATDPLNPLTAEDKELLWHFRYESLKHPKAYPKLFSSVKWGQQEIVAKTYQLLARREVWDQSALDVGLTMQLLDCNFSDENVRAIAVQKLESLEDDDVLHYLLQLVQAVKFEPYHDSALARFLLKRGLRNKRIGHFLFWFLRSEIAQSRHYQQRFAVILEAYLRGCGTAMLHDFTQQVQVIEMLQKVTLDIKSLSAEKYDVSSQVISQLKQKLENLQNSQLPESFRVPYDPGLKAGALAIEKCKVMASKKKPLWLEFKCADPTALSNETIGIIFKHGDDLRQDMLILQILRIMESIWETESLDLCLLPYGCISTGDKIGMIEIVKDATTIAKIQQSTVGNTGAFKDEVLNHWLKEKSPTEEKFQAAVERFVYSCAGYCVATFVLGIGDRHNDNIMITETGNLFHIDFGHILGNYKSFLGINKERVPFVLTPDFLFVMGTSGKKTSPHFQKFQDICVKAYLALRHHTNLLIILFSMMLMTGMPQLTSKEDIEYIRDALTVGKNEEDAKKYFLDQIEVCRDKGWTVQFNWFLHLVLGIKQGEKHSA
On to `CC(=O)Nc1cncc(-c2cnc(N)nc2)c1`, for which the Activity worked out at 98%.
Consider `CS(=O)(=O)Nc1cncc(-c2cnc(N)nc2)c1`, for which the Activity worked out at 43%.
Consider `Nc1ncc(-c2cncc(NS(=O)(=O)c3cccc(C(F)(F)F)c3)c2)cn1`, for which the Activity turned out to be 9.6%.
Regarding `Nc1cncc(-c2cnc(N)nc2)c1`, the Activity came out at 100%.
Still for that read-out and setting: under `Nc1ncc(-c2cncc(NS(=O)(=O)c3ccc([N+](=O)[O-])cc3)c2)cn1` stands 6.7%; under `COc1ccc(S(=O)(=O)Nc2cncc(-c3cnc(N)nc3)c2)cc1`, 20%; under `Nc1ncc(-c2cncc(NS(=O)(=O)c3ccccc3)c2)cn1`, 24%.
On to `Cc1ccc(S(=O)(=O)Nc2cncc(-c3cnc(N)nc3)c2)cc1[N+](=O)[O-]`, for which the Activity came to 5.3%.
On to `Nc1ncc(-c2cncc(NS(=O)(=O)c3ccc(F)cc3F)c2)cn1`, for which the Activity was found to be 7.2%.
On to `Nc1ncc(-c2cncc(NS(=O)(=O)c3ccc4ccccc4c3)c2)cn1`, for which the Activity turned out to be 25%.
Take `Cc1ccc(S(=O)(=O)Nc2cncc(-c3cnc(N)nc3)c2)cc1`: the Activity is 8.2%.

The target in the next experiment is T2, Phosphatidylinositol 4,5-bisphosphate 3-kinase catalytic subunit beta isoform (Homo sapiens, UniProt P42338). Briefly: Inhibition of PI3Kbeta assessed as enzyme activity at 10 uM relative to control. On the set-up: scale not given: the % may be the effect or the level left.
Target sequence in this assay (P42338 whole entry, looked up, canonical isoform): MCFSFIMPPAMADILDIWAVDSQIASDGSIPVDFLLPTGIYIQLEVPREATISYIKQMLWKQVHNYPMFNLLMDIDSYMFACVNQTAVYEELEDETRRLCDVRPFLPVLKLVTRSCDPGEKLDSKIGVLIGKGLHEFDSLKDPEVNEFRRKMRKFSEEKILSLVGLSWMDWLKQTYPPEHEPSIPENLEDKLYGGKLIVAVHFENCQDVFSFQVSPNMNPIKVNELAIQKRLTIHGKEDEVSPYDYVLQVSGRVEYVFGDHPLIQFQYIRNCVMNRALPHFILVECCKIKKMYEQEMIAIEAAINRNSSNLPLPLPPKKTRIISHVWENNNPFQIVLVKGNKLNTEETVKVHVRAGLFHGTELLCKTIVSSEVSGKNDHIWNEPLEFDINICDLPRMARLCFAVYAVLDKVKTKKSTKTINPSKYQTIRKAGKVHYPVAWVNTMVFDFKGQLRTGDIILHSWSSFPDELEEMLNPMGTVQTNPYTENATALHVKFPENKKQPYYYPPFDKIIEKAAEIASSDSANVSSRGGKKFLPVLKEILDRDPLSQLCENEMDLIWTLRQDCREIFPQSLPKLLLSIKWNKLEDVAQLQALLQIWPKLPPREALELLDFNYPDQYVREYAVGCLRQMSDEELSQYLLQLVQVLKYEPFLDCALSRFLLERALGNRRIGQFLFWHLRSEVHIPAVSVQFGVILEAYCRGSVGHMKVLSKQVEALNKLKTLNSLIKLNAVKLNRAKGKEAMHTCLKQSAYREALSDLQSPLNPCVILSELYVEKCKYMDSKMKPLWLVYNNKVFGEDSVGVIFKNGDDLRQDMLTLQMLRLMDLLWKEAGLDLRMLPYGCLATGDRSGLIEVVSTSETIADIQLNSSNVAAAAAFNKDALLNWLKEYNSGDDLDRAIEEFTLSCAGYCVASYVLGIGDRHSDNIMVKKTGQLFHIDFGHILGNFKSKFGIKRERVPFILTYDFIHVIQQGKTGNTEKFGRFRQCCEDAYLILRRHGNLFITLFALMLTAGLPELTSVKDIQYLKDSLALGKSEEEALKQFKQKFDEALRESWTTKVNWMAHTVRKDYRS
In the case of `Cc1nc(N)ncc1-c1cncc(NS(=O)(=O)c2ccccc2)c1`, the Activity came out at 5.2%.
Still for that read-out and setting: under `O=S(=O)(Nc1cncc(-c2cnc3nccn3c2)c1)c1ccccc1` stands 39%; under `O=S(=O)(Nc1cncc(-c2cnc3[nH]ccc3c2)c1)c1ccccc1`, 4.9%.
As for `CC(=O)Nc1cncc(-c2cnc(N)nc2)c1`, the Activity was 69%.
Take `O=S(=O)(Nc1cncc(-c2cccnc2)c1)c1ccccc1`: the Activity was 7.4%.
With `CS(=O)(=O)Nc1cncc(-c2cnc(N)nc2)c1`, the Activity came out at 28%.
On to `Cc1nc(N)nc(C)c1-c1cncc(NS(=O)(=O)c2ccccc2)c1`, for which the Activity is 18%.
Regarding `CC(=O)Nc1ncc(-c2cncc(NS(=O)(=O)c3ccccc3)c2)cn1`, the Activity stood at 34%.
With `Nc1ncc(-c2cncc(NS(=O)(=O)c3cccc(C(F)(F)F)c3)c2)cn1`, the Activity is 1.2%.
For the compound `CNc1ncc(-c2cncc(NS(=O)(=O)c3ccccc3)c2)cn1`, the Activity worked out at 5.2%.
As to `Nc1cncc(-c2cnc(N)nc2)c1`, the Activity was 86%.
In the case of `Nc1ncc(-c2cncc(NS(=O)(=O)c3ccc([N+](=O)[O-])cc3)c2)cn1`, the Activity is 1.6%.
Take `Nc1ncc2cc(-c3cncc(NS(=O)(=O)c4ccccc4)c3)ccc2n1`: the Activity stood at 0%.
For the compound `COc1ccc(S(=O)(=O)Nc2cncc(-c3cnc(N)nc3)c2)cc1`, the Activity is 1.7%.
On to `Nc1ncc(-c2cncc(NS(=O)(=O)c3ccccc3)c2)cn1`, for which the Activity amounted to 1.4%.
As for `Cc1ccc(S(=O)(=O)Nc2cncc(-c3cnc(N)nc3)c2)cc1[N+](=O)[O-]`, the Activity was determined as 0.7%.
With `Nc1ncc(-c2cncc(NS(=O)(=O)c3ccc(F)cc3F)c2)cn1`, the Activity amounted to 0.7%.
In the case of `O=S(=O)(Nc1cncc(-c2ccc3nccn3c2)c1)c1ccccc1`, the Activity amounted to 0.6%.
Turning to `CN(C)c1ncc(-c2cncc(NS(=O)(=O)c3ccccc3)c2)cn1`, the Activity stood at 66%.
Regarding `Nc1ncc(-c2cncc(NS(=O)(=O)c3ccc4ccccc4c3)c2)cn1`, the Activity stood at 1%.
Turning to `Cc1ccc(S(=O)(=O)Nc2cncc(-c3cnc(N)nc3)c2)cc1`, the Activity was determined as 0.5%.

For another experiment, the target named is T1, Phosphatidylinositol 4,5-bisphosphate 3-kinase catalytic subunit alpha isoform. Briefly: Inhibition of PI3Kalpha assessed as enzyme activity at 10 uM relative to control. On the set-up: scale not given: the % may be the effect or the level left.
For the compound `Cc1nc(N)ncc1-c1cncc(NS(=O)(=O)c2ccccc2)c1`, the Activity came out at 66%.
With `O=S(=O)(Nc1cncc(-c2cnc3nccn3c2)c1)c1ccccc1`, the Activity amounted to 95%.
Take `O=S(=O)(Nc1cncc(-c2cnc3[nH]ccc3c2)c1)c1ccccc1`: the Activity turned out to be 56%.
Turning to `CC(=O)Nc1cncc(-c2cnc(N)nc2)c1`, the Activity came to 97%.
Same read-out and setting: the figure for `O=S(=O)(Nc1cncc(-c2cccnc2)c1)c1ccccc1` is 52%; for `CS(=O)(=O)Nc1cncc(-c2cnc(N)nc2)c1` it is 62%.
For `Cc1nc(N)nc(C)c1-c1cncc(NS(=O)(=O)c2ccccc2)c1`, the Activity is 89%.
For `CC(=O)Nc1ncc(-c2cncc(NS(=O)(=O)c3ccccc3)c2)cn1`, the Activity came out at 100%.
`Nc1ncc(-c2cncc(NS(=O)(=O)c3cccc(C(F)(F)F)c3)c2)cn1`: the Activity turned out to be 30%.
For the compound `CNc1ncc(-c2cncc(NS(=O)(=O)c3ccccc3)c2)cn1`, the Activity turned out to be 39%.
On to `Nc1cncc(-c2cnc(N)nc2)c1`, for which the Activity came to 98%.
Turning to `Nc1ncc(-c2cncc(NS(=O)(=O)c3ccc([N+](=O)[O-])cc3)c2)cn1`, the Activity came to 18%.
For the compound `Nc1ncc2cc(-c3cncc(NS(=O)(=O)c4ccccc4)c3)ccc2n1`, the Activity turned out to be 0%.
Same read-out and setting: the figure for `COc1ccc(S(=O)(=O)Nc2cncc(-c3cnc(N)nc3)c2)cc1` is 87%.
For `Nc1ncc(-c2cncc(NS(=O)(=O)c3ccccc3)c2)cn1`, the Activity is 60%.
Take `Cc1ccc(S(=O)(=O)Nc2cncc(-c3cnc(N)nc3)c2)cc1[N+](=O)[O-]`: the Activity was 42%.
On to `Nc1ncc(-c2cncc(NS(=O)(=O)c3ccc(F)cc3F)c2)cn1`, for which the Activity turned out to be 22%.
Take `O=S(=O)(Nc1cncc(-c2ccc3nccn3c2)c1)c1ccccc1`: the Activity is 4%.
With `CN(C)c1ncc(-c2cncc(NS(=O)(=O)c3ccccc3)c2)cn1`, the Activity turned out to be 100%.
`Nc1ncc(-c2cncc(NS(=O)(=O)c3ccc4ccccc4c3)c2)cn1`: the Activity was 92%.
On the same count and under the same terms, under `Cc1ccc(S(=O)(=O)Nc2cncc(-c3cnc(N)nc3)c2)cc1` stands 17%.

In a further experiment the target is T3, Phosphatidylinositol 4,5-bisphosphate 3-kinase catalytic subunit delta isoform (Homo sapiens) (UniProt O00329).
T3 sequence (whole entry): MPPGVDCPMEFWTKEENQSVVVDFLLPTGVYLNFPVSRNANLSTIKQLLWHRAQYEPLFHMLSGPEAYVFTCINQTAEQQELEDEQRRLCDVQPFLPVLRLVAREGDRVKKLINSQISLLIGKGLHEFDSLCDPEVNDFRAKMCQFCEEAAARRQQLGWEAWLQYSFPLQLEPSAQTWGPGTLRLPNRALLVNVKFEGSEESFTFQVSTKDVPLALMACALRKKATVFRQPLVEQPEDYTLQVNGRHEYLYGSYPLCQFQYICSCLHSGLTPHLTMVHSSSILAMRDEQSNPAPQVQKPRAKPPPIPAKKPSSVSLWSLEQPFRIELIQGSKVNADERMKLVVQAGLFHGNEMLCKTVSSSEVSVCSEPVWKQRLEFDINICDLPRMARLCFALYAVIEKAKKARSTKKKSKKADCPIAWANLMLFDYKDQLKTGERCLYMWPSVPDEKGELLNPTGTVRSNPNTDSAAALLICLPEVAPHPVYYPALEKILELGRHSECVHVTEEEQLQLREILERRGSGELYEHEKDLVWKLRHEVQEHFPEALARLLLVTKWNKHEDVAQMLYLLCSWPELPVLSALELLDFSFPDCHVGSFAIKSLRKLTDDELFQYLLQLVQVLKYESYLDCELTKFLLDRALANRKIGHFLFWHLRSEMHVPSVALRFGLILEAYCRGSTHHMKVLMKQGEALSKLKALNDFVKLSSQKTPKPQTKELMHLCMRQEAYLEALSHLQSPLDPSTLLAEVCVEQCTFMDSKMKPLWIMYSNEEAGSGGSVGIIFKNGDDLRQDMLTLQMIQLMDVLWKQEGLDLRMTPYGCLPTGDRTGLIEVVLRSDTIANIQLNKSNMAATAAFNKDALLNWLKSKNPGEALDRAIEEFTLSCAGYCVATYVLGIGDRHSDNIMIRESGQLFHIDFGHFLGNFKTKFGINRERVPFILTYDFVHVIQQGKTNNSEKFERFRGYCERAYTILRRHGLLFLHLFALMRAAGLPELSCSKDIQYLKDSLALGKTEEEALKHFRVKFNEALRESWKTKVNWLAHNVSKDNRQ
As to the kind of experiment: Inhibition of PI3Kdelta assessed as enzyme activity relative to control. Also on record: concentration or dose not given beside the values.
With `CC(=O)Nc1cncc(-c2cnc(N)nc2)c1`, the Activity is 65%.
In the case of `CS(=O)(=O)Nc1cncc(-c2cnc(N)nc2)c1`, the Activity is 38%.
`Nc1ncc(-c2cncc(NS(=O)(=O)c3cccc(C(F)(F)F)c3)c2)cn1`: the Activity was determined as 0.9%.
As to `Nc1cncc(-c2cnc(N)nc2)c1`, the Activity stood at 82%.
Take `Nc1ncc(-c2cncc(NS(=O)(=O)c3ccc([N+](=O)[O-])cc3)c2)cn1`: the Activity was 9.5%.
On to `COc1ccc(S(=O)(=O)Nc2cncc(-c3cnc(N)nc3)c2)cc1`, for which the Activity was 4.3%.
Same read-out and setting: under `Nc1ncc(-c2cncc(NS(=O)(=O)c3ccccc3)c2)cn1` stands 4.2%; under `Cc1ccc(S(=O)(=O)Nc2cncc(-c3cnc(N)nc3)c2)cc1[N+](=O)[O-]`, 0.1%.
The same measure, in the same setting: under `Nc1ncc(-c2cncc(NS(=O)(=O)c3ccc(F)cc3F)c2)cn1` stands 4.7%; under `Nc1ncc(-c2cncc(NS(=O)(=O)c3ccc4ccccc4c3)c2)cn1`, 4.2%; under `Cc1ccc(S(=O)(=O)Nc2cncc(-c3cnc(N)nc3)c2)cc1`, 3.4%.

Another experiment concerns the target T2, Phosphatidylinositol 4,5-bisphosphate 3-kinase catalytic subunit beta isoform. As to the kind of experiment: Binding affinity to PI3Kbeta.
Target sequence in this assay (P42338 whole entry, canonical isoform): as the sequence (P42338 whole entry, looked up, canonical isoform) above
As for `CC(=O)Nc1cncc(-c2cnc(N)nc2)c1`, the Kd is greater than 20000 nM.
With `CS(=O)(=O)Nc1cncc(-c2cnc(N)nc2)c1`, the affinity, expressed as Kd, was 5200 nM.
Regarding `Nc1ncc(-c2cncc(NS(=O)(=O)c3cccc(C(F)(F)F)c3)c2)cn1`, the Kd was 430 nM.
Still for that read-out and setting: the figure for `Nc1cncc(-c2cnc(N)nc2)c1` is greater than 40000 nM; for `Nc1ncc(-c2cncc(NS(=O)(=O)c3ccc([N+](=O)[O-])cc3)c2)cn1` it is 550 nM; for `COc1ccc(S(=O)(=O)Nc2cncc(-c3cnc(N)nc3)c2)cc1` it is 500 nM.
Regarding `Nc1ncc(-c2cncc(NS(=O)(=O)c3ccccc3)c2)cn1`, the Kd was 360 nM.
For `Cc1ccc(S(=O)(=O)Nc2cncc(-c3cnc(N)nc3)c2)cc1[N+](=O)[O-]`, binding was put at a Kd of 250 nM.
`Nc1ncc(-c2cncc(NS(=O)(=O)c3ccc(F)cc3F)c2)cn1` registered a Kd of 220 nM.
In turn, `Nc1ncc(-c2cncc(NS(=O)(=O)c3ccc4ccccc4c3)c2)cn1` registered a Kd of 230 nM.
With `Cc1ccc(S(=O)(=O)Nc2cncc(-c3cnc(N)nc3)c2)cc1`, the Kd worked out at 100 nM.

In the next experiment the test system is T47D. Briefly: Antiproliferative activity against human T47D cells by MTT assay. Type of experiment: functional, cell-based.
The IC50 is the midpoint of a concentration-inhibition curve. In the case of `Nc1ncc(-c2cncc(NS(=O)(=O)c3ccccc3)c2)cn1`, 9.6 µM corresponded to half-maximal inhibition (IC50).
For the compound `Nc1ncc(-c2cncc(NS(=O)(=O)c3ccc(F)cc3F)c2)cn1`, 8.5 µM corresponded to half-maximal inhibition (IC50).
On to `Cc1ccc(S(=O)(=O)Nc2cncc(-c3cnc(N)nc3)c2)cc1`, for which the IC50 came out at 4.7 µM.
